Literature values, collected in patent publication US7718385B2, “Bioactivation of alkylating agents for cancer treatment” (priority 2003, dated 2010).

Experiments:
NCI-H460 = conditions: NCI-H460, Non-Small Cell Lung; cited from earlier work
CCRF-CEM = conditions: cited from earlier work
HL-60(TB) = conditions: cited from earlier work
MOLT-4 = conditions: MOLT-4, Leukemia, cited from earlier work
SR = conditions: cited from earlier work
A549/ATCC = conditions: cited from earlier work
EKVX = conditions: cited from earlier work
NCI-H322M = conditions: cited from earlier work
HCT-15 = conditions: HCT-15, Colon, cited from earlier work
KM12 = conditions: KM12, Colon, cited from earlier work
SW-620 = conditions: SW-620, Colon, cited from earlier work
SF-295 = conditions: SF-295, Central Nervous System, cited from earlier work
SNB-19 = conditions: SNB-19, Central Nervous System, cited from earlier work
MALME-3M = conditions: cited from earlier work
SK-MEL-2 = conditions: SK-MEL-2, Melanoma, cited from earlier work
SK-MEL-5 = conditions: SK-MEL-5, Melanoma, cited from earlier work
OVCAR-4 = conditions: OVCAR-4, Ovarian, cited from earlier work
786-0 = conditions: 786-0, Renal, cited from earlier work
TK-10 = conditions: TK-10, Renal, cited from earlier work
PC-3 = conditions: PC-3, Prostate, cited from earlier work
T-47D = conditions: cited from earlier work
[1] = read-out: LC50, Non-Small Cell Lung

## CC1=C(CO)C2=C(C)C3(CC3)[C@@](C)(O)C(=O)C2=C1 [Irofulven, 6-hydroxymethylacylfulvene]
NCI-H460
  GI50: 0.0501 µM
  TGI: 2.51E−07
  log(GI50): −7.3
  log(TGI): −6.6
CCRF-CEM; Leukemia
  GI50: 2 µM
  TGI: 3.16E−05
  log(GI50): −5.7
  log(TGI): −4.5
CCRF-CEM; read-out: LC50, Leukemia
  CC50: ≥ 100 µM
HL-60(TB); Leukemia
  GI50: 0.251 µM
  TGI: 2.00E−06
  log(GI50): −6.6
  log(TGI): −5.7
HL-60(TB); read-out: LC50, Leukemia
  CC50: ≥ 100 µM
MOLT-4
  GI50: 0.794 µM
  TGI: 2.00E−05
  log(GI50): −6.1
  log(TGI): −4.7
MOLT-4; read-out: LC50
  CC50: ≥ 100 µM
SR; Leukemia
  GI50: 0.794 µM
  TGI: 1.00E−04
  log(GI50): −6.1
  log(TGI): −4
SR; read-out: LC50, Leukemia
  CC50: ≥ 100 µM
A549/ATCC; Non-Small Cell Lung
  GI50: 0.126 µM
  TGI: 1.58E−06
  log(GI50): −6.9
  log(TGI): −5.8
A549/ATCC; [1]
  CC50: ≥ 100 µM
EKVX; Non-Small Cell Lung
  GI50: 0.2 µM
  TGI: 5.01E−07
  log(GI50): −6.7
  log(LC50): −5.4
  log(TGI): −6.3
EKVX; [1]
  CC50: 3.98 µM
NCI-H322M; Non-Small Cell Lung
  GI50: 0.251 µM
  TGI: 6.31E−07
  log(GI50): −6.6
  log(LC50): −4.9
  log(TGI): −6.2
NCI-H322M; [1]
  CC50: 12.6 µM
HCT-15
  GI50: 0.316 µM
  TGI: 5.01E−06
  log(GI50): −6.5
  log(TGI): −5.3
HCT-15; read-out: LC50
  CC50: ≥ 100 µM
KM12
  GI50: 0.631 µM
  TGI: 2.51E−06
  log(GI50): −6.2
  log(LC50): −4.9
  log(TGI): −5.6
KM12; read-out: LC50
  CC50: 12.6 µM
SW-620
  GI50: 0.631 µM
  TGI: 3.16E−05
  log(GI50): −6.2
  log(TGI): −4.5
SW-620; read-out: LC50
  CC50: ≥ 100 µM
SF-295
  GI50: 0.316 µM
  TGI: 6.31E−06
  log(GI50): −6.5
  log(LC50): −5
  log(TGI): −5.2
SF-295; read-out: LC50
  CC50: 10 µM
SNB-19
  GI50: 0.316 µM
  TGI: 1.00E−05
  log(GI50): −6.5
  log(LC50): −4.2
  log(TGI): −5
SNB-19; read-out: LC50
  CC50: 63.1 µM
MALME-3M; Melanoma
  GI50: 0.2 µM
  TGI: 5.01E−07
  log(GI50): −6.7
  log(LC50): −5.6
  log(TGI): −6.3
MALME-3M; read-out: LC50, Melanoma
  CC50: 2.51 µM
SK-MEL-2
  GI50: 0.2 µM
  TGI: 3.98E−07
  log(GI50): −6.7
  log(LC50): −6.2
  log(TGI): −6.4
SK-MEL-2; read-out: LC50
  CC50: 0.631 µM
SK-MEL-5
  GI50: 0.158 µM
  TGI: 3.98E−07
  log(GI50): −6.8
  log(LC50): −6
  log(TGI): −6.4
SK-MEL-5; read-out: LC50
  CC50: 1 µM
OVCAR-4
  GI50: 0.251 µM
  TGI: 6.31E−07
  log(GI50): −6.6
  log(LC50): −4.6
  log(TGI): −6.2
OVCAR-4; read-out: LC50
  CC50: 25.1 µM
786-0
  GI50: 0.2 µM
  TGI: 5.01E−07
  log(GI50): −6.7
  log(LC50): −5.7
  log(TGI): −6.3
786-0; read-out: LC50
  CC50: 2 µM
TK-10
  GI50: 0.251 µM
  TGI: 1.26E−06
  log(GI50): −6.6
  log(TGI): −5.9
TK-10; read-out: LC50
  CC50: ≥ 100 µM
PC-3
  GI50: 0.251 µM
  TGI: 1.26E−06
  log(GI50): −6.6
  log(LC50): −4.5
  log(TGI): −5.9
PC-3; read-out: LC50
  CC50: 31.6 µM
T-47D; Breast
  GI50: 0.2 µM
  TGI: 2.51E−06
  log(GI50): −6.7
  log(TGI): −5.6
T-47D; read-out: LC50, Breast
  CC50: ≥ 100 µM
